Measurements as given in the supplement of paper PMC8617591.

How the values were obtained:
[1] = test system: Mycobacterium tuberculosis Erdman (autoluminescent); assay: total FIC50 (Loewe) at 50% inhibition, three-drug combination (log2); higher = more antagonistic
Description: (§1)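 DiaMOND equipotent three-drug combination dose responses (10 doses, 1.5- or 2-fold spacing, centred on IC90) against autoluminescent M. tuberculosis Erdman in 8 in vitro models. Read-out is OD600, or luminescence for the intracellular and dormancy models, normalised to untreated wells. Hill-fit Einf, AUC25 and GRinf are potency metrics; FIC50 and FIC90 are total Loewe fractional inhibitory concentrations as log2 (negative = synergy).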

[2] = test system: Mycobacterium tuberculosis Erdman (autoluminescent); assay: total FIC90 (Loewe) at 90% inhibition, three-drug combination (log2); higher = more antagonistic
Description: as §1

[3] = test system: Mycobacterium tuberculosis Erdman (autoluminescent); assay: Einf, fitted maximum growth inhibition of three-drug combination (fraction); higher = stronger maximal inhibition
Description: as §1

[4] = test system: Mycobacterium tuberculosis Erdman (autoluminescent); assay: AUC25, normalised area under dose response up to IC25 (three-drug combination) (fraction (0-1)); higher = more potent at low dose
Description: as §1

[5] = test system: Mycobacterium tuberculosis Erdman (autoluminescent); assay: GRinf, maximum normalised growth rate inhibition (three-drug combination) (unitless (-1 to 1)); higher = less effect (negative = killing)
Description: as §1

COc1nc2ccc(Br)cc2cc1[C@@H](c1ccccc1)[C@@](O)(CCN(C)C)c1cccc2ccccc12 [bedaquiline] + CC(C)/N=c1\cc2n(-c3ccc(Cl)cc3)c3ccccc3nc-2cc1Nc1ccc(Cl)cc1 [clofazimine] + CC[C@@H](CO)NCCN[C@@H](CC)CO [ethambutol]
Conditions | AUC25, [4] | Einf, [3] | GRinf, [5] | total FIC50, [1] | total FIC90, [2]
in vitro model: acidic pH 5.7, time point: constant (~7 days, model-specific) | 0.0844 | 0.852 | -0.216 | 0.516 | –
in vitro model: acidic pH 5.7, time point: terminal (~4-5 doublings, model-specific) | 0.0687 | 0.969 | -0.273 | 0.534 | 0.129
in vitro model: intracellular J774, time point: constant = terminal | – | 0.992 | -0.72 | – | -0.364

Conditions | AUC25, [4] | Einf, [3] | GRinf, [5] | total FIC50, [1] | total FIC90, [2]
in vitro model: butyrate, time point: constant (~7 days, model-specific) | 0.0618 | 0.945 | -0.0931 | 0.078 | –
in vitro model: butyrate, time point: terminal (~4-5 doublings, model-specific) | 0.0476 | 0.976 | -0.104 | 0.111 | -0.667
in vitro model: cholesterol 0.05 mM, time point: constant (~7 days, model-specific) | 0.0892 | 0.762 | -0.109 | 0.0426 | –
in vitro model: cholesterol 0.05 mM, time point: terminal (~4-5 doublings, model-specific) | 0.117 | 0.937 | -0.32 | 0.424 | –
in vitro model: cholesterol-high 0.2 mM, time point: constant (~7 days, model-specific) | 0.0568 | 0.996 | -0.788 | 0.329 | –
in vitro model: cholesterol-high 0.2 mM, time point: terminal (~4-5 doublings, model-specific) | 0.0708 | 1 | -0.736 | 0.543 | 0.542
in vitro model: dormancy (butyrate + nitrate, low O2), time point: constant (~7 days, model-specific) | 0.102 | 0.82 | 0.429 | 0.788 | –
in vitro model: dormancy (butyrate + nitrate, low O2), time point: terminal (~4-5 doublings, model-specific) | 0.0994 | 0.991 | -0.239 | 0.238 | 0.0433
in vitro model: standard 7H9 glycerol, time point: constant = terminal | 0.0939 | 0.965 | -0.0889 | -0.254 | –
in vitro model: valerate, time point: constant (~7 days, model-specific) | 0.107 | 0.947 | -0.0899 | 0.469 | –
in vitro model: valerate, time point: terminal (~4-5 doublings, model-specific) | 0.0804 | 0.962 | -0.0795 | 0.16 | -0.225

COc1nc2ccc(Br)cc2cc1[C@@H](c1ccccc1)[C@@](O)(CCN(C)C)c1cccc2ccccc12 [bedaquiline] + CC(C)/N=c1\cc2n(-c3ccc(Cl)cc3)c3ccccc3nc-2cc1Nc1ccc(Cl)cc1 [clofazimine] + CO[C@H]1/C=C/O[C@@]2(C)Oc3c(C)c(O)c4c(O)c(c(/C=N/N5CCN(C6CCCC6)CC5)c(O)c4c3C2=O)NC(=O)/C(C)=C\C=C\[C@H](C)[C@H](O)[C@@H](C)[C@@H](O)[C@@H](C)[C@H](OC(C)=O)[C@@H]1C [rifapentine]
Conditions | AUC25, [4] | Einf, [3] | GRinf, [5] | total FIC50, [1] | total FIC90, [2]
in vitro model: acidic pH 5.7, time point: constant (~7 days, model-specific) | 0.0909 | 0.924 | -0.309 | 0.793 | –
in vitro model: acidic pH 5.7, time point: terminal (~4-5 doublings, model-specific) | 0.0906 | 0.997 | -0.284 | 0.66 | 0.55
in vitro model: intracellular J774, time point: constant = terminal | – | 0.951 | -0.199 | – | -0.0198

Conditions | AUC25, [4] | Einf, [3] | GRinf, [5] | total FIC50, [1] | total FIC90, [2]
in vitro model: butyrate, time point: constant (~7 days, model-specific) | 0.0667 | 0.948 | -0.116 | 0.174 | -0.813
in vitro model: butyrate, time point: terminal (~4-5 doublings, model-specific) | 0.0586 | 0.983 | -0.124 | 0.264 | -0.221
in vitro model: cholesterol 0.05 mM, time point: constant (~7 days, model-specific) | 0.0889 | 0.716 | -0.179 | -0.467 | –
in vitro model: cholesterol 0.05 mM, time point: terminal (~4-5 doublings, model-specific) | 0.085 | 0.926 | -0.231 | 0.869 | -0.165
in vitro model: cholesterol-high 0.2 mM, time point: constant (~7 days, model-specific) | 0.0509 | 0.965 | -0.378 | -0.0878 | -0.883
in vitro model: cholesterol-high 0.2 mM, time point: terminal (~4-5 doublings, model-specific) | 0.0654 | 1 | -0.595 | 0.507 | -0.0793
in vitro model: dormancy (butyrate + nitrate, low O2), time point: constant (~7 days, model-specific) | 0.0857 | 0.937 | 0.218 | -0.0609 | -0.282
in vitro model: dormancy (butyrate + nitrate, low O2), time point: terminal (~4-5 doublings, model-specific) | 0.0766 | 0.997 | -0.206 | -0.242 | -0.206
in vitro model: standard 7H9 glycerol, time point: constant = terminal | 0.079 | 0.959 | -0.0819 | -0.0863 | -0.842
in vitro model: valerate, time point: constant (~7 days, model-specific) | 0.0956 | 0.895 | -0.0953 | 0.292 | –
in vitro model: valerate, time point: terminal (~4-5 doublings, model-specific) | 0.0686 | 0.95 | -0.0333 | 0.461 | 0.966

COc1nc2ccc(Br)cc2cc1[C@@H](c1ccccc1)[C@@](O)(CCN(C)C)c1cccc2ccccc12 [bedaquiline] + CC(C)/N=c1\cc2n(-c3ccc(Cl)cc3)c3ccccc3nc-2cc1Nc1ccc(Cl)cc1 [clofazimine] + CO[C@H]1/C=C/O[C@@]2(C)Oc3c(C)c(O)c4c(O)c(c(/C=N/N5CCN(C)CC5)c(O)c4c3C2=O)NC(=O)/C(C)=C\C=C\[C@H](C)[C@H](O)[C@@H](C)[C@@H](O)[C@@H](C)[C@H](OC(C)=O)[C@@H]1C [rifampicin]
Conditions | AUC25, [4] | Einf, [3] | GRinf, [5] | total FIC50, [1] | total FIC90, [2]
in vitro model: acidic pH 5.7, time point: constant (~7 days, model-specific) | 0.0895 | 0.926 | -0.41 | 0.927 | –
in vitro model: acidic pH 5.7, time point: terminal (~4-5 doublings, model-specific) | 0.0837 | 0.992 | -0.332 | 0.816 | 0.52
in vitro model: intracellular J774, time point: constant = terminal | – | 0.965 | -0.213 | – | 0.287

Conditions | AUC25, [4] | Einf, [3] | GRinf, [5] | total FIC50, [1] | total FIC90, [2]
in vitro model: butyrate, time point: constant (~7 days, model-specific) | 0.0821 | 0.954 | -0.113 | 0.164 | -0.692
in vitro model: butyrate, time point: terminal (~4-5 doublings, model-specific) | 0.0695 | 0.983 | -0.115 | 0.163 | -0.325
in vitro model: cholesterol 0.05 mM, time point: constant (~7 days, model-specific) | 0.0702 | 0.714 | -0.146 | -0.919 | –
in vitro model: cholesterol 0.05 mM, time point: terminal (~4-5 doublings, model-specific) | 0.0755 | 0.925 | -0.226 | 0.904 | -0.861
in vitro model: cholesterol-high 0.2 mM, time point: constant (~7 days, model-specific) | 0.0563 | 0.933 | -0.277 | -0.143 | -0.728
in vitro model: cholesterol-high 0.2 mM, time point: terminal (~4-5 doublings, model-specific) | 0.0498 | 0.999 | -0.582 | 0.757 | -0.216
in vitro model: dormancy (butyrate + nitrate, low O2), time point: constant (~7 days, model-specific) | 0.0659 | 0.906 | 0.222 | -0.0697 | -0.643
in vitro model: dormancy (butyrate + nitrate, low O2), time point: terminal (~4-5 doublings, model-specific) | 0.0651 | 0.994 | -0.191 | -0.41 | -0.344
in vitro model: standard 7H9 glycerol, time point: constant = terminal | 0.0883 | 0.959 | -0.1 | -0.172 | -1.01
in vitro model: valerate, time point: constant (~7 days, model-specific) | 0.0872 | 0.88 | -0.0295 | 0.776 | –
in vitro model: valerate, time point: terminal (~4-5 doublings, model-specific) | 0.0594 | 0.936 | -0.0101 | 0.627 | 0.54
